According to PubChem BioAssay (NCI):
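Grown in 96-well plates, cells were treated for 48 hours with each compound at five concentrations. Insufficient inhibition: endpoint recorded as highest concentration tested. Abbreviation: GI50, concentration required for 50% inhibition of growth. At the TGI there is no net growth.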

Assays:
Assay in all cases: NCI anticancer screen, dose series, 48 h
NCI-H23 lung = system: NCI-H23 lung
T-47D breast = system: T-47D breast
OVCAR-3 ovarian = system: OVCAR-3 ovarian
SF-268 CNS = system: SF-268 CNS
SN12C renal = system: SN12C renal
HL-60(TB) leukemia = system: HL-60(TB) leukemia
HS 578T breast = system: HS 578T breast
KM12 colon = system: KM12 colon
NCI-H226 lung = system: NCI-H226 lung
OVCAR-4 ovarian = system: OVCAR-4 ovarian
HCC-2998 colon = system: HCC-2998 colon
BT-549 breast = system: BT-549 breast
SK-OV-3 ovarian = system: SK-OV-3 ovarian
SF-295 CNS = system: SF-295 CNS
SW-620 colon = system: SW-620 colon
SNB-19 CNS = system: SNB-19 CNS
HCT-15 colon = system: HCT-15 colon
NCI/ADR-RES ovarian = system: NCI/ADR-RES ovarian
ACHN renal = system: ACHN renal
LOX IMVI melanoma = system: LOX IMVI melanoma
HCT-116 colon = system: HCT-116 colon
UO-31 renal = system: UO-31 renal
SR leukemia = system: SR leukemia
COLO 205 colon = system: COLO 205 colon
TK-10 renal = system: TK-10 renal
M14 melanoma = system: M14 melanoma
EKVX NSCLC = system: EKVX NSCLC
SK-MEL-2 melanoma = system: SK-MEL-2 melanoma
A498 renal = system: A498 renal
DU-145 prostate = system: DU-145 prostate
HT29 colon = system: HT29 colon
HOP-62 NSCLC = system: HOP-62 NSCLC
SK-MEL-5 melanoma = system: SK-MEL-5 melanoma
SF-539 CNS = system: SF-539 CNS
HOP-92 NSCLC = system: HOP-92 NSCLC
MDA-MB-231 breast = system: MDA-MB-231 breast
RXF 393 renal = system: RXF 393 renal
CCRF-CEM leukemia = system: CCRF-CEM leukemia
SNB-75 CNS = system: SNB-75 CNS
A549 NSCLC = system: A549 NSCLC
PC-3 prostate = system: PC-3 prostate
OVCAR-5 ovarian = system: OVCAR-5 ovarian
UACC-257 melanoma = system: UACC-257 melanoma
OVCAR-8 ovarian = system: OVCAR-8 ovarian
NCI-H460 lung = system: NCI-H460 lung
CAKI-1 renal = system: CAKI-1 renal
MDA-MB-435 = system: MDA-MB-435
K-562 leukemia = system: K-562 leukemia
MCF7 breast = system: MCF7 breast
U251 CNS = system: U251 CNS
RPMI-8226 leukemia = system: RPMI-8226 leukemia
UACC-62 melanoma = system: UACC-62 melanoma
786-0 renal = system: 786-0 renal
IGROV1 ovarian = system: IGROV1 ovarian
MOLT-4 leukemia = system: MOLT-4 leukemia
NCI-H522 lung = system: NCI-H522 lung
SK-MEL-28 melanoma = system: SK-MEL-28 melanoma
MALME-3M melanoma = system: MALME-3M melanoma

`CCn1cc(C2NC(=O)c3ccccc3N2)c2cccc(C)c21` (stereo not given) gave a GI50 (NCI-H23 lung) of 844 nM, a TGI (NCI-H23 lung) greater than 100000 nM and a GI50 (T-47D breast) of 556 nM. For the same compound, the TGI (T-47D breast) was greater than 100000 nM, the GI50 (OVCAR-3 ovarian) was 275 nM and the TGI (OVCAR-3 ovarian) was 1020 nM. For the same compound, the GI50 (SF-268 CNS) was 1360 nM, the TGI (SF-268 CNS) was greater than 68000 nM and the GI50 (SN12C renal) was 579 nM. For the same compound, the TGI (SN12C renal) was 17000 nM, the GI50 (HL-60(TB) leukemia) was 310 nM and the TGI (HL-60(TB) leukemia) was 1060 nM. The GI50 (HS 578T breast) was 255 nM, the TGI (HS 578T breast) was 1950 nM and the GI50 (KM12 colon) was 389 nM. For the same compound, the TGI (KM12 colon) was 22200 nM, the GI50 (NCI-H226 lung) was 572 nM and the TGI (NCI-H226 lung) was 13200 nM. The GI50 (OVCAR-4 ovarian) was 1490 nM, the TGI (OVCAR-4 ovarian) was 13100 nM and the GI50 (HCC-2998 colon) was 1080 nM. For the same compound, the TGI (HCC-2998 colon) was 8220 nM, the GI50 (BT-549 breast) was 901 nM and the TGI (BT-549 breast) was 17600 nM. The GI50 (SK-OV-3 ovarian) was 522 nM, the TGI (SK-OV-3 ovarian) was greater than 86100 nM and the GI50 (SF-295 CNS) was 293 nM. For the same compound, the GI50 (SW-620 colon) was 337 nM, the TGI (SW-620 colon) was greater than 100000 nM and the GI50 (SNB-19 CNS) was 456 nM. For the same compound, the TGI (SNB-19 CNS) was greater than 100000 nM, the GI50 (HCT-15 colon) was 360 nM and the TGI (HCT-15 colon) was 24500 nM. It also gave a GI50 (NCI/ADR-RES ovarian) of 319 nM, a TGI (NCI/ADR-RES ovarian) of 4570 nM and a GI50 (ACHN renal) of 685 nM. For the same compound, the TGI (ACHN renal) was 23100 nM, the GI50 (LOX IMVI melanoma) was 571 nM and the TGI (LOX IMVI melanoma) was 13700 nM. It also gave a GI50 (HCT-116 colon) of 409 nM, a TGI (HCT-116 colon) of 11500 nM and a GI50 (UO-31 renal) of 631 nM. It also gave a TGI (UO-31 renal) of 16400 nM, a GI50 (SR leukemia) of 261 nM and a TGI (SR leukemia) greater than 100000 nM. It also gave a GI50 (COLO 205 colon) of 485 nM, a TGI (COLO 205 colon) of 9880 nM and a GI50 (TK-10 renal) of 3000 nM. It also gave a TGI (TK-10 renal) greater than 40900 nM, a GI50 (M14 melanoma) of 298 nM and a TGI (M14 melanoma) greater than 100000 nM. For the same compound, the GI50 (EKVX NSCLC) was 621 nM, the TGI (EKVX NSCLC) was greater than 100000 nM and the GI50 (SK-MEL-2 melanoma) was 631 nM. The TGI (SK-MEL-2 melanoma) was greater than 100000 nM, the GI50 (A498 renal) was 172 nM and the TGI (A498 renal) was 947 nM. The GI50 (DU-145 prostate) was 430 nM, the TGI (DU-145 prostate) was 27900 nM and the GI50 (HT29 colon) was 331 nM. It also gave a TGI (HT29 colon) of 4290 nM, a GI50 (HOP-62 NSCLC) of 517 nM and a TGI (HOP-62 NSCLC) of 34200 nM. It also gave a GI50 (SK-MEL-5 melanoma) of 338 nM, a TGI (SK-MEL-5 melanoma) of 5870 nM and a GI50 (SF-539 CNS) of 275 nM. It also gave a TGI (SF-539 CNS) of 1340 nM, a GI50 (HOP-92 NSCLC) of 4790 nM and a TGI (HOP-92 NSCLC) greater than 78700 nM. The GI50 (MDA-MB-231 breast) was 991 nM, the TGI (MDA-MB-231 breast) was 12000 nM and the GI50 (RXF 393 renal) was 199 nM. It also gave a TGI (RXF 393 renal) of 658 nM, a GI50 (CCRF-CEM leukemia) of 324 nM and a TGI (CCRF-CEM leukemia) of 96900 nM. For the same compound, the GI50 (SNB-75 CNS) was 184 nM, the TGI (SNB-75 CNS) was 829 nM and the GI50 (A549 NSCLC) was 653 nM. For the same compound, the TGI (A549 NSCLC) was 14700 nM, the GI50 (PC-3 prostate) was 443 nM and the TGI (PC-3 prostate) was greater than 100000 nM. It also gave a GI50 (OVCAR-5 ovarian) of 915 nM, a TGI (OVCAR-5 ovarian) greater than 91600 nM and a GI50 (UACC-257 melanoma) of 60000 nM. It also gave a TGI (UACC-257 melanoma) greater than 100000 nM, a GI50 (OVCAR-8 ovarian) of 617 nM and a TGI (OVCAR-8 ovarian) of 22600 nM. The GI50 (NCI-H460 lung) was 346 nM, the TGI (NCI-H460 lung) was 1460 nM and the GI50 (CAKI-1 renal) was 289 nM. The TGI (CAKI-1 renal) was 20400 nM, the GI50 (MDA-MB-435) was 142 nM and the TGI (MDA-MB-435) was 357 nM. For the same compound, the GI50 (K-562 leukemia) was 224 nM, the TGI (K-562 leukemia) was greater than 100000 nM and the GI50 (MCF7 breast) was 298 nM. It also gave a TGI (MCF7 breast) greater than 100000 nM, a GI50 (U251 CNS) of 456 nM and a TGI (U251 CNS) of 13900 nM. For the same compound, the GI50 (RPMI-8226 leukemia) was 381 nM, the TGI (RPMI-8226 leukemia) was greater than 100000 nM and the GI50 (UACC-62 melanoma) was 311 nM. It also gave a TGI (UACC-62 melanoma) greater than 100000 nM, a GI50 (786-0 renal) of 539 nM and a TGI (786-0 renal) of 22300 nM. The GI50 (IGROV1 ovarian) was 473 nM, the TGI (IGROV1 ovarian) was greater than 100000 nM and the GI50 (MOLT-4 leukemia) was 531 nM. It also gave a TGI (MOLT-4 leukemia) greater than 100000 nM, a GI50 (NCI-H522 lung) of 265 nM and a TGI (NCI-H522 lung) of 17600 nM. For the same compound, the GI50 (SK-MEL-28 melanoma) was 2040 nM, the TGI (SK-MEL-28 melanoma) was greater than 100000 nM and the GI50 (MALME-3M melanoma) was 449 nM. For the same compound, the TGI (MALME-3M melanoma) was greater than 100000 nM.
